Data from paper PMC5218480 (PLoS ONE, 2017).

Tested on: MV-4-11 cells
Assay: Gene expression microarray analysis (Affymetrix PrimeView) and GSEA
Type: cell-based, human
Set-up: RFU PODN (11730768_x_at) / Fold change /veh PODN (11730768_x_at) / RFU LINC00158 (11744669_a_at) / Fold change /veh LINC00158 (11744669_a_at) / RFU DUSP10 (11751237_a_at) / Fold change /veh DUSP10 (11751237_a_at) / RFU ID3 (11757404_x_at) / Fold change /veh ID3 (11757404_x_at) / RFU PLEKHG5 (11737974_s_at) / Fold change /veh PLEKHG5 (11737974_s_at) / RFU LRRC4B (11730491_at) / Fold change /veh LRRC4B (11730491_at) / RFU GIMAP4 (11747438_a_at) / Fold change /veh GIMAP4 (11747438_a_at) / RFU KRT8 (11758183_x_at) / Fold change /veh KRT8 (11758183_x_at) / RFU CNN1 (11734310_a_at) / Fold change /veh CNN1 (11734310_a_at) / RFU VPS37D (11726825_at) / Fold change /veh VPS37D (11726825_at) / RFU C10orf10 (11716522_x_at) / Fold change /veh C10orf10 (11716522_x_at) / RFU KIR2DL2 /// KIR2DL4 /// KIR2DL5A /// KIR2DL5B /// KIR2DS1 /// KIR2DS2 /// KIR2DS3 /// KIR2DS4 /// KIR3DL3 /// KIR3DL3 /// KIR3DS1 (11738374_at) / Fold change /veh KIR2DL2 /// KIR2DL4 /// KIR2DL5A /// KIR2DL5B /// KIR2DS1 /// KIR2DS2 /// KIR2DS3 /// KIR2DS4 /// KIR3DL3 /// KIR3DL3 /// KIR3DS1 (11738374_at) / RFU C1QL1 (11718748_at) / Fold change /veh C1QL1 (11718748_at) / RFU TMPRSS4 (11747572_a_at) / Fold change /veh TMPRSS4 (11747572_a_at) / RFU HAMP (11756126_x_at) / Fold change /veh HAMP (11756126_x_at) / RFU RNFT2 (11725882_a_at) / Fold change /veh RNFT2 (11725882_a_at) / RFU NR4A2 (11747474_a_at) / Fold change /veh NR4A2 (11747474_a_at) / RFU ABCC12 (11746883_a_at) / Fold change /veh ABCC12 (11746883_a_at) / RFU TMEM136 (11760407_x_at) / Fold change /veh TMEM136 (11760407_x_at) / RFU CLDN22 /// WWC2 (11732394_at) / Fold change /veh CLDN22 /// WWC2 (11732394_at) / RFU HLA-DPB1 (11760878_x_at) / Fold change /veh HLA-DPB1 (11760878_x_at) / RFU SPINT1 (11716480_a_at) / Fold change /veh SPINT1 (11716480_a_at) / RFU GAP43 (11754022_s_at) / Fold change /veh GAP43 (11754022_s_at) / RFU A4GNT (11735810_at) / Fold change /veh A4GNT (11735810_at) / RFU PRB3 (11715151_x_at) / Fold change /veh PRB3 (11715151_x_at) / RFU TUBB4B (11761932_at) / Fold change /veh TUBB4B (11761932_at) / RFU CAPN14 (11732068_a_at) / Fold change /veh CAPN14 (11732068_a_at) / RFU TMCC2 (11721928_a_at) / Fold change /veh TMCC2 (11721928_a_at) / RFU IRGQ (11745062_a_at) / Fold change /veh IRGQ (11745062_a_at) / RFU FAM174B (11720279_a_at) / Fold change /veh FAM174B (11720279_a_at) / RFU TMPRSS4 (11748680_a_at) / Fold change /veh TMPRSS4 (11748680_a_at) / RFU FAM212B (11763350_a_at) / Fold change /veh FAM212B (11763350_a_at) / RFU PLEKHG5 (11743358_a_at) / Fold change /veh PLEKHG5 (11743358_a_at) / RFU ZSCAN30 (11745921_a_at) / Fold change /veh ZSCAN30 (11745921_a_at) / RFU CMKLR1 (11741424_a_at) / Fold change /veh CMKLR1 (11741424_a_at) / RFU LOC101060620 /// MAPK8IP1 (11723275_at) / Fold change /veh LOC101060620 /// MAPK8IP1 (11723275_at) / RFU SPTSSB (11747773_x_at) / Fold change /veh SPTSSB (11747773_x_at) / RFU PRSS12 (11739890_at) / Fold change /veh PRSS12 (11739890_at) / RFU BIN1 (11741810_x_at) / Fold change /veh BIN1 (11741810_x_at) / RFU WNT11 (11732464_a_at) / Fold change /veh WNT11 (11732464_a_at) / RFU C10orf10 (11716521_a_at) / Fold change /veh C10orf10 (11716521_a_at) / RFU C5orf56 (11738089_at) / Fold change /veh C5orf56 (11738089_at) / RFU CYB561 (11721691_x_at) / Fold change /veh CYB561 (11721691_x_at) / RFU ANKRD19P (11752326_a_at) / Fold change /veh ANKRD19P (11752326_a_at) / RFU OR2T12 /// OR2T33 /// OR2T8 (11738714_s_at) / Fold change /veh OR2T12 /// OR2T33 /// OR2T8 (11738714_s_at) / RFU VCAN (11748164_a_at) / Fold change /veh VCAN (11748164_a_at) / RFU JSRP1 (11732532_at) / Fold change /veh JSRP1 (11732532_at) / RFU KRTAP10-11 (11738290_x_at) / Fold change /veh KRTAP10-11 (11738290_x_at) / RFU MYO3A (11730013_a_at) / Fold change /veh MYO3A (11730013_a_at) / RFU EBF3 (11725865_a_at) / Fold change /veh EBF3 (11725865_a_at) / RFU CAMK2N1 (11719241_x_at) / Fold change /veh CAMK2N1 (11719241_x_at) / RFU C5orf56 (11738088_a_at) / Fold change /veh C5orf56 (11738088_a_at) / RFU OLFML3 (11715873_a_at) / Fold change /veh OLFML3 (11715873_a_at) / RFU LOC100653217 /// NTM (11731650_a_at) / Fold change /veh LOC100653217 /// NTM (11731650_a_at) / RFU MAPK11 (11762145_a_at) / Fold change /veh MAPK11 (11762145_a_at) / RFU FIZ1 (11724087_x_at) / Fold change /veh FIZ1 (11724087_x_at) / RFU OASL (11726364_x_at) / Fold change /veh OASL (11726364_x_at) / RFU SOX15 (11748057_x_at) / Fold change /veh SOX15 (11748057_x_at) / RFU CD79A (11719716_a_at) / Fold change /veh CD79A (11719716_a_at) / RFU HIST1H1D (11736915_at) / Fold change /veh HIST1H1D (11736915_at) / RFU CASKIN2 (11723855_a_at) / Fold change /veh CASKIN2 (11723855_a_at) / RFU LOC730098 (11760151_x_at) / Fold change /veh LOC730098 (11760151_x_at) / RFU OR4N2 (11742367_at) / Fold change /veh OR4N2 (11742367_at) / RFU PRRT2 (11749266_a_at) / Fold change /veh PRRT2 (11749266_a_at) / RFU SNX32 (11753110_a_at) / Fold change /veh SNX32 (11753110_a_at) / RFU CDHR5 (11726645_a_at) / Fold change /veh CDHR5 (11726645_a_at) / RFU RCAN1 (11760418_a_at) / Fold change /veh RCAN1 (11760418_a_at) / RFU FAM167A (11723789_a_at) / Fold change /veh FAM167A (11723789_a_at) / RFU FAM26E (11764081_at) / Fold change /veh FAM26E (11764081_at) / RFU ISYNA1 (11749810_s_at) / Fold change /veh ISYNA1 (11749810_s_at) / RFU ACY1 (11761880_at) / Fold change /veh ACY1 (11761880_at) / RFU 11764098_at / Fold change /veh 11764098_at / RFU SAMD14 (11745864_x_at) / Fold change /veh SAMD14 (11745864_x_at) / RFU NPB (11741838_a_at) / Fold change /veh NPB (11741838_a_at) / RFU TMPRSS6 (11731388_a_at) / Fold change /veh TMPRSS6 (11731388_a_at) / RFU KRTAP10-2 (11738614_at) / Fold change /veh KRTAP10-2 (11738614_at) / RFU ARHGAP8 /// PRR5-ARHGAP8 (11727945_x_at) / Fold change /veh ARHGAP8 /// PRR5-ARHGAP8 (11727945_x_at) / RFU KRTAP5-7 /// NADSYN1 (11734609_at) / Fold change /veh KRTAP5-7 /// NADSYN1 (11734609_at) / RFU RASL12 (11751679_a_at) / Fold change /veh RASL12 (11751679_a_at) / RFU CDKN2B (11736163_a_at) / Fold change /veh CDKN2B (11736163_a_at) / RFU PRF1 (11729649_at) / Fold change /veh PRF1 (11729649_at) / RFU, ZNF638 /// ZNF638-IT1 / Fold change vs veh, ZNF638 /// ZNF638-IT1 / RFU, PANK3 / Fold change vs veh, PANK3 / RFU, SH3YL1 / Fold change vs veh, SH3YL1 / RFU, ZEB2 / Fold change vs veh, ZEB2 / RFU, NRIP1 / Fold change vs veh, NRIP1 / RFU, PTTG1IP / Fold change vs veh, PTTG1IP / RFU, CAPN2 / Fold change vs veh, CAPN2 / RFU, MED14 / Fold change vs veh, MED14 / RFU, SNORA58 / Fold change vs veh, SNORA58 / RFU, C1orf63 / Fold change vs veh, C1orf63 / RFU, LRRFIP1 / Fold change vs veh, LRRFIP1 / RFU, NDUFAF7 / Fold change vs veh, NDUFAF7 / RFU, SLC12A2 / Fold change vs veh, SLC12A2 / RFU, IBTK / Fold change vs veh, IBTK / RFU, ESF1 / Fold change vs veh, ESF1 / Fold change vs veh, TMEM50B / RFU, TAOK1 / Fold change vs veh, TAOK1 / RFU, ACBD3 / Fold change vs veh, ACBD3 / RFU, TMA16 / Fold change vs veh, TMA16 / RFU, RWDD3 / Fold change vs veh, RWDD3 / RFU, BCAT1 / Fold change vs veh, BCAT1 / RFU, EDEM3 / Fold change vs veh, EDEM3 / RFU, TMEM33 / Fold change vs veh, TMEM33 / RFU, WDR75 / Fold change vs veh, WDR75 / RFU, AHCTF1 / Fold change vs veh, AHCTF1 / RFU, TFRC / Fold change vs veh, TFRC / RFU, ZDHHC17 / Fold change vs veh, ZDHHC17 / RFU, NOM1 / Fold change vs veh, NOM1 / RFU, ARL8B / Fold change vs veh, ARL8B / RFU, ZBTB11 / Fold change vs veh, ZBTB11 / RFU, TAMM41 / Fold change vs veh, TAMM41 / RFU, KIAA1704 /// LOC100996395 / Fold change vs veh, KIAA1704 /// LOC100996395 / RFU, ING1 / Fold change vs veh, ING1 / RFU, TRMT61B / Fold change vs veh, TRMT61B / RFU, FUBP3 / Fold change vs veh, FUBP3 / RFU, TP53 / Fold change vs veh, TP53 / RFU, TNKS2 / Fold change vs veh, TNKS2 / RFU, ZFP14 / Fold change vs veh, ZFP14 / RFU, ACTR2 / Fold change vs veh, ACTR2 / RFU, PPP3R1 / Fold change vs veh, PPP3R1 / RFU, PIK3R1 / Fold change vs veh, PIK3R1 / RFU, HNRNPA1 / Fold change vs veh, HNRNPA1 / RFU, RNF170 / Fold change vs veh, RNF170 / RFU, ZNF28 / Fold change vs veh, ZNF28 / RFU, RNGTT / Fold change vs veh, RNGTT / RFU, OGT / Fold change vs veh, OGT / RFU, BRD1 / Fold change vs veh, BRD1 / RFU, MARS / Fold change vs veh, MARS / RFU, ZNF655 / Fold change vs veh, ZNF655 / RFU, FAHD1 / Fold change vs veh, FAHD1 / RFU, BDP1 / Fold change vs veh, BDP1 / RFU, LRRCC1 / Fold change vs veh, LRRCC1 / RFU, ARID1A / Fold change vs veh, ARID1A / RFU, ZNF146 / Fold change vs veh, ZNF146 / RFU, ZNF330 / Fold change vs veh, ZNF330 / RFU, GPN3 / Fold change vs veh, GPN3 / RFU, C9orf123 / Fold change vs veh, C9orf123 / RFU, N4BP2L2 / Fold change vs veh, N4BP2L2 / RFU, ARFIP1 / Fold change vs veh, ARFIP1 / RFU, FAM179B / Fold change vs veh, FAM179B / RFU, BCL10 / Fold change vs veh, BCL10 / RFU, UHRF1BP1L / Fold change vs veh, UHRF1BP1L / RFU, BET1 / Fold change vs veh, BET1 / RFU, CNOT2 / Fold change vs veh, CNOT2 / RFU, ZNF268 / Fold change vs veh, ZNF268 / Fold change vs veh, ZNF507 / RFU, DGCR2 / Fold change vs veh, DGCR2 / RFU, WDSUB1 / Fold change vs veh, WDSUB1 / Fold change vs veh, HSP90B1 /// MIR3652 / RFU, ADSS / Fold change vs veh, ADSS / RFU, GK / Fold change vs veh, GK / RFU, ZNF148 / Fold change vs veh, ZNF148 / RFU, TAF9 / Fold change vs veh, TAF9 / RFU, SLC1A5 / Fold change vs veh, SLC1A5 / RFU, SLMO2 / Fold change vs veh, SLMO2 / RFU, ABCC4 / Fold change vs veh, ABCC4 / RFU, LOC101060439 /// RAP1B / Fold change vs veh, LOC101060439 /// RAP1B / RFU, RFX7 / Fold change vs veh, RFX7 / RFU, GTPBP10 / Fold change vs veh, GTPBP10 / RFU, CNEP1R1 / Fold change vs veh, CNEP1R1 / RFU, BIVM-ERCC5 /// ERCC5 / Fold change vs veh, BIVM-ERCC5 /// ERCC5 / RFU, ILF3 / Fold change vs veh, ILF3 / RFU 11762660_at / Fold change /veh 11762660_at / RFU VCAN (11757783_s_at) / Fold change /veh VCAN (11757783_s_at) / RFU DDX43 (11728927_at) / Fold change /veh DDX43 (11728927_at) / RFU KRT8 (11758188_x_at) / Fold change /veh KRT8 (11758188_x_at) / RFU NKD1 (11759106_at) / Fold change /veh NKD1 (11759106_at) / RFU SRD5A1 (11742802_a_at) / Fold change /veh SRD5A1 (11742802_a_at) / RFU TPSAB1 /// TPSB2 (11721975_s_at) / Fold change /veh TPSAB1 /// TPSB2 (11721975_s_at) / RFU GSTM3 (11746129_a_at) / Fold change /veh GSTM3 (11746129_a_at) / RFU IL23R (11737362_x_at) / Fold change /veh IL23R (11737362_x_at) / RFU TMEM51 (11727254_a_at) / Fold change /veh TMEM51 (11727254_a_at) / RFU PIWIL2 (11732686_x_at) / Fold change /veh PIWIL2 (11732686_x_at) / RFU ORM1 (11744905_x_at) / Fold change /veh ORM1 (11744905_x_at) / RFU CCDC152 (11743942_at) / Fold change /veh CCDC152 (11743942_at) / RFU ECM1 (11717891_a_at) / Fold change /veh ECM1 (11717891_a_at) / RFU IL23R (11748794_a_at) / Fold change /veh IL23R (11748794_a_at) / RFU TNFAIP8L3 (11732012_x_at) / Fold change /veh TNFAIP8L3 (11732012_x_at) / RFU MBOAT4 (11741988_at) / Fold change /veh MBOAT4 (11741988_at) / RFU 11764193_at / Fold change /veh 11764193_at / RFU TMEM53 (11763286_at) / Fold change /veh TMEM53 (11763286_at) / RFU MAGEB2 (11727129_at) / Fold change /veh MAGEB2 (11727129_at) / RFU TMEM200A (11744735_a_at) / Fold change /veh TMEM200A (11744735_a_at) / RFU CCDC152 (11751479_a_at) / Fold change /veh CCDC152 (11751479_a_at) / RFU FAM211A (11726209_a_at) / Fold change /veh FAM211A (11726209_a_at) / RFU RGS16 (11746705_a_at) / Fold change /veh RGS16 (11746705_a_at) / RFU VCAN (11755009_s_at) / Fold change /veh VCAN (11755009_s_at) / RFU RHOB (11743442_s_at) / Fold change /veh RHOB (11743442_s_at) / RFU RGS16 (11720943_a_at) / Fold change /veh RGS16 (11720943_a_at) / RFU RGS16 (11720944_at) / Fold change /veh RGS16 (11720944_at) / RFU, VPS4B / Fold change vs veh, VPS4B / RFU, CREB1 / Fold change vs veh, CREB1 / RFU, DNAJC13 / Fold change vs veh, DNAJC13 / RFU, GNAQ / Fold change vs veh, GNAQ / RFU, CDK5R1 / Fold change vs veh, CDK5R1 / RFU, ZRANB3 / Fold change vs veh, ZRANB3 / RFU, CUL4A / Fold change vs veh, CUL4A / RFU, CCNY / Fold change vs veh, CCNY / RFU, UFL1 / Fold change vs veh, UFL1 / RFU, COG3 / Fold change vs veh, COG3 / RFU, DIAPH2 / Fold change vs veh, DIAPH2 / RFU, SKA2 / Fold change vs veh, SKA2 / RFU, AFF3 / Fold change vs veh, AFF3 / RFU, LMF1 / Fold change vs veh, LMF1 / RFU, IPO11 / Fold change vs veh, IPO11 / RFU, DFFB / Fold change vs veh, DFFB / RFU, FOXP1 / Fold change vs veh, FOXP1 / RFU, CARD8 / Fold change vs veh, CARD8 / RFU, STRN3 / Fold change vs veh, STRN3 / RFU, ADK / Fold change vs veh, ADK / RFU, RASSF2 / Fold change vs veh, RASSF2 / RFU, WIPF1 / Fold change vs veh, WIPF1 / RFU, LARP1B / Fold change vs veh, LARP1B / RFU, RASA1 / Fold change vs veh, RASA1 / RFU, RB1 / Fold change vs veh, RB1 / RFU, PPFIA1 / Fold change vs veh, PPFIA1 / RFU, MAT2A / Fold change vs veh, MAT2A / RFU, CCT5 / Fold change vs veh, CCT5 / RFU, WDR92 / Fold change vs veh, WDR92 / RFU, CUX1 / Fold change vs veh, CUX1 / RFU, TTC7A / Fold change vs veh, TTC7A / RFU, TMEM135 / Fold change vs veh, TMEM135 / RFU, DEPTOR / Fold change vs veh, DEPTOR / RFU, CPM / Fold change vs veh, CPM / RFU, DNAJB6 / Fold change vs veh, DNAJB6 / RFU, CACNA2D3 / Fold change vs veh, CACNA2D3 / RFU, DTX4 / Fold change vs veh, DTX4 / RFU, TFCP2 / Fold change vs veh, TFCP2 / RFU, GMCL1 /// GMCL1P1 / Fold change vs veh, GMCL1 /// GMCL1P1 / RFU, AEBP2 / Fold change vs veh, AEBP2 / RFU, SNHG1 /// SNORD22 /// SNORD25 /// SNORD26 /// SNORD27 /// SNORD28 /// SNORD29 /// SNORD31 / Fold change vs veh, SNHG1 /// SNORD22 /// SNORD25 /// SNORD26 /// SNORD27 /// SNORD28 /// SNORD29 /// SNORD31 / Fold change (Aza/veh), C12orf56 (ProbeSet 11735607_a_at) / Fold change (ACY-1035/veh), C12orf56 (ProbeSet 11735607_a_at) / Fold change (Aza/veh), FGFR1OP (ProbeSet 11751329_s_at) / Fold change (ACY-1035/veh), FGFR1OP (ProbeSet 11751329_s_at) / Fold change (Aza/veh), VPS36 (ProbeSet 11739960_a_at) / Fold change (ACY-1035/veh), VPS36 (ProbeSet 11739960_a_at) / RFU SYPL1 (11715823_x_at) / Fold change /veh SYPL1 (11715823_x_at) / RFU IGFBP7 (11715501_s_at) / Fold change /veh IGFBP7 (11715501_s_at) / RFU REEP3 (11722064_at) / Fold change /veh REEP3 (11722064_at) / RFU IGLL1 (11728026_x_at) / Fold change /veh IGLL1 (11728026_x_at): dose or concentration left out as unconfirmed
Conditions: ProbeSet 11758170_s_at; LIST D

For `Nc1ccc(-c2cccs2)cc1NC(=O)c1ccc2c(c1)cc(C1CC1)n2CCN1CCOCC1` [ACY-1035], the “Fold change vs veh, DIAPH2” value was 1.00.
